The target in one assay is T1, TrkA (Homo sapiens, UniProt P04629).
T1 construct: purchased MBL International (CycLex) CY-1091
As to the kind of experiment: TrkA inhibitory activity, CycLex TrkA kinase assay/inhibitor screening kit. The class given is biochemical. As to conditions: for inhibition at 1 µM: compound 1 μM, read-out: % inhibition rate (based on 1 μM). On the procedure: The TrkA inhibitory activity of the compounds was evaluated using CycLex® TrkA kinase assay/inhibitor screening kit of MBL International (Cat No. CY-1091). The test was carried out according to the analysis method provided by the manufacturer. The test method is as follows.
1. 1× wash buffer was prepared by diluting 10× wash buffer in ddH2O.
2. 20×ATP solution (1.25 mM) was prepared by adding 1.6 mL of distilled water to the tube containing ATP dissolved in NA2 salt and freeze-dried.
4. A working solution mixture and a solution of the appropriate concentration of the example compound to evaluate the activity of the example compound were prepared and dispensed into a 96-well plate as shown in table below.
5. After dispensing the solutions into a 96-well plate, the plate was incubated at 30° C. for 30 minutes.
6. After incubation of the plate at 30° C. for 30 minutes, 200 μL of 1× wash buffer was added into each well of the plate, followed by washing. This process was repeated 5 times.
7. After washing the plate, 100 μL of HRP conjugated detection antibody (PX-39) was added into each well of the plate, followed by reaction at room temperature for 60 minutes.
8. Upon completion of the reaction, 200 μL of 1× wash buffer was added into each well of the plate, followed by washing. This process was repeated 5 times.
9. After washing the plate, 100 μL of substrate reagent containing chromogenic substrate and tetra-methylbenzidine (TMB) was added into each well of the plate, followed by incubation at room temperature for 5-15 minutes.
10. Upon completion of the reaction, 100 μL of stop solution (1 N H2SO4) was added into each well of the plate, followed by measuring OD450 within 30 minutes.

The target of the next assay is T2, TrkB (Homo sapiens, UniProt Q16620).
T2 construct: host or cells: U2OS
As to the kind of experiment: PathHunter eXpress TrkB functional assay kit (U2OS cells, agonist BDNF). The following applies: compound 1 μM, read-out: TrkB % inhibition rate (based on 1 μM). The class given is cell-based. How it is done:
(§1) The inhibitory activity of the example compounds against TrkB and TrkC was evaluated using PathHunter® eXpress TrkB or TrkC functional assay kit (Product Code: 93-0463E3 and 93-0464E3) of DiscoverX. The test was carried out according to the analysis method provided by the manufacturer. The test was carried out as follows over 2 or 3 days depending on the conditions of cells.
(§2) 1. Before starting the experiment, the cell plating (CP) reagent stored at −80° C. was dissolved in a 37° C. water bath.
(§3) 2. When the CP reagent was dissolved, cell vials for TrkB or TrkC were prepared to be dissolved.
(§4) 3. Two U2OS cell vials (TrkB kit & TrkC kit) stored in liquid nitrogen were thawed.
(§5) 4. 500 μL of CP reagent was added to the thawed cell vial, and the cells were sufficiently mixed by pipetting and transferred to a Conical tube in which 11.5 mL of CP reagent was dispensed.
(§6) 5. 12 mL cells (1×10^6 cells in CP reagent) were seeded on a 96-well tissue culture treated plate (100 μL/well), followed by culture in a 37° C., 5% CO2 humidified incubator for 24 hours or 48 hours.
(§7) Day 2 or Day 3: Treatment of Test Material
(§8) 1. Test material, agonist and antagonist were prepared as stock solutions according to the experiment design. • Test material: 10 mM Stock solution in DMSO • Antagonist (GNF-5837): 10 mM Stock solution in 1.8674 mL DMSO • Agonist: TrkB agonist→BDNF, TrkC agonist→NT-3
(§9) 2. 10 mM stock solutions of teat material and antagonist having the concentration of 22 times more concentrated than the final screening concentration were prepared according to the experiment design.
(§10) 3. Each well of the 96-well culture plate containing cells was treated with 5 μL of the solutions of teat material and antagonist having the concentration of 22 times more concentrated than the final screening concentration (#2), followed by incubation at 37° C. for 60 minutes.
(§11) 4. During the incubation, 10 μg/mL stock solution of each agonist for TrkB and TrkC was prepared using a reconstitution buffer for the purpose of the experiment, and each well of the plate was treated with 5 μL of the prepared solution, followed by incubation at 19-25° C. for 3 hours.
(§12) 5. During the incubation, a detection reagent working solution (4.75 ml Cell assay buffer, 1.25 ml Substrate Reagent 1, 0.25 ml Substrate Reagent 2) was prepared. Upon completion of the incubation, 55 μL of the working solution was added into each well of the plate.
(§13) 7. The plate was incubated at room temperature for 60 minutes in a dark place, and the […] was measured with a luminescence plate reader.

Another assay deals with T3, TrkC (Homo sapiens, UniProt Q16288).
T3 construct: host or cells: U2OS
Description: PathHunter eXpress TrkC functional assay kit (U2OS cells, agonist NT-3). The class given is cell-based. As to conditions: for inhibition at 1 µM: compound 1 μM, read-out: TrkC % inhibition rate (based on 1 μM). How it is done: as §1, §2, §3, §4, §5, §6, §7, §8, §9, §10, §11, §12, §13

The subject of assay [1] is postoperative pain animal model. As to the kind of experiment: Pharmacological activity in postoperative pain model (von-Frey mechanical allodynia, 50% withdrawal threshold). The class given is in vivo, Sprague-Dawley male rats. The following applies: oral, rat postoperative pain model, 2 days after surgery; for ED50: 48 h, read-out: ED50. On the procedure:
Sprague-Dawley male rats weighing around 150 g (Orient bio., Korea) were used. Rats were raised in an environment where a 12-hour light-dark cycle was maintained, 4 per transparent plastic cage covered with scob as bedding. Food and water were provided freely. To verify the analgesic effect of the example compounds, all rats were anesthetized with O2 delivered from the induction chamber at a ratio of 3:3 of isoflurane and operated. Anesthetized rats were placed on a 37° C. warm plate to prevent hypothermia during the operation. The ipsilateral sole (left) of the hind paw of the experimental animal was disinfected with 10% povidone-iodine solution, and incised to a length of 1 cm with a #11 surgical knife. The incision was made starting from 0.5 cm of the proximal edge of the heel through the skin and fascia on the side of the ipsilateral sole toward the toe. After the incision, a gentle pressure was applied to the incision site to stop the bleeding and the skin was sutured. The surgical site was sterilized with 10% povidone-iodine solution, and gentamicin (8 mg/kg) was administered intraperitoneally to prevent infection. The analgesic effect of the compound on postoperative pain was evaluated in the experimental animals 2 days after the surgery. […] The formula for calculating the 50% withdrawal threshold (g) is as follows. 50% Withdrawal threshold (g)=(10^(x+kd))/10^4 [Mathematical Formula 1] • x=the value of the last tested filament (log unit value). • k=the value indicating positive/negative reaction by up-down method. • d=the value fixed at 0.224 as the average difference between stimuli.

By inhibition is commonly meant the drop in the measured response relative to a control, in per cent. The term ED50 denotes the dose that gives a 50% effect, or the effect in half of the subjects. A word on the IC50: it is the concentration that inhibits the measured activity by half. Higher therefore signals weaker potency in that assay.

The structures appear in SMILES notation.

T2 sequence (Q16620 32-822): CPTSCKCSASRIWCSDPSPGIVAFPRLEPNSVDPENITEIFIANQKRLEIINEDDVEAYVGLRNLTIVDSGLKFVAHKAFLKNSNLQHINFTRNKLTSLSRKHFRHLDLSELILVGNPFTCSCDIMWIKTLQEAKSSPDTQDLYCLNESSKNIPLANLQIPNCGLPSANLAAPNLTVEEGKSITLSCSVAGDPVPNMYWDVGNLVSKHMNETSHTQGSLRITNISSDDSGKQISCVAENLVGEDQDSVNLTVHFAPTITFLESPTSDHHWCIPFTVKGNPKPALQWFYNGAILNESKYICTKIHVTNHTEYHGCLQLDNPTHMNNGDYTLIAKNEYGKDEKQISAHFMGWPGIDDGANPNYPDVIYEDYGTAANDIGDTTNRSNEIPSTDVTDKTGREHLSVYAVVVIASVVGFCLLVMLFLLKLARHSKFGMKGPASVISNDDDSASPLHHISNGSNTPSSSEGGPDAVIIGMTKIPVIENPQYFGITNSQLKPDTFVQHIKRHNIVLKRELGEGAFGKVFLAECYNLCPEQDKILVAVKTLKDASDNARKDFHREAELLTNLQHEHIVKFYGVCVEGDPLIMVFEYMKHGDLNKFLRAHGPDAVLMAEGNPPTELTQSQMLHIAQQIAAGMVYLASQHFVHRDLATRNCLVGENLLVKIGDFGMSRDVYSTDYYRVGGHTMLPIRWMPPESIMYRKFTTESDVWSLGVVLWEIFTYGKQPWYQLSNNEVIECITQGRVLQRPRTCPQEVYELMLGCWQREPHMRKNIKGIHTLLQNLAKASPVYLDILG
T3 sequence (Q16288 32-839): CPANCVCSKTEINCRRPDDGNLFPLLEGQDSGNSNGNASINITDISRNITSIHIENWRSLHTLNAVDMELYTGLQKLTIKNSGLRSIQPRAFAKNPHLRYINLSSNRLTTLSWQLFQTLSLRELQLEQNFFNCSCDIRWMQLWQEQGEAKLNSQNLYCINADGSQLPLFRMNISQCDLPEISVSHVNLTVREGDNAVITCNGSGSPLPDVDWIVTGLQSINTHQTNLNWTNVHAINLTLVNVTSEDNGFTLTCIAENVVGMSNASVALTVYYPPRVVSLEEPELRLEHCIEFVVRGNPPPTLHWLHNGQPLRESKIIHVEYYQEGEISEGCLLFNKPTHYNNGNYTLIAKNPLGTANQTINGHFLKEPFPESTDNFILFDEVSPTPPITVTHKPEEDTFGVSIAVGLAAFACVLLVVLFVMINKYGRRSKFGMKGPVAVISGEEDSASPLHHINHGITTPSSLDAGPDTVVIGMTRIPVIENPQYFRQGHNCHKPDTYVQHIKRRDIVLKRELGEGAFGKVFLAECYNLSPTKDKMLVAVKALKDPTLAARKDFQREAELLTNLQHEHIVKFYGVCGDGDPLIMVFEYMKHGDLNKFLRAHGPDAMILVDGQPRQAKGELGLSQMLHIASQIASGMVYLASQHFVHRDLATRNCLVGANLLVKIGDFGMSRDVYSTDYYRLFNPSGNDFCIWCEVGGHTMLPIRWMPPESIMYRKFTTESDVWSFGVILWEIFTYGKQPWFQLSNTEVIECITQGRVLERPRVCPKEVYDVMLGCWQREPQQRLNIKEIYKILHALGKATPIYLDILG
T1 sequence (P04629 33-796): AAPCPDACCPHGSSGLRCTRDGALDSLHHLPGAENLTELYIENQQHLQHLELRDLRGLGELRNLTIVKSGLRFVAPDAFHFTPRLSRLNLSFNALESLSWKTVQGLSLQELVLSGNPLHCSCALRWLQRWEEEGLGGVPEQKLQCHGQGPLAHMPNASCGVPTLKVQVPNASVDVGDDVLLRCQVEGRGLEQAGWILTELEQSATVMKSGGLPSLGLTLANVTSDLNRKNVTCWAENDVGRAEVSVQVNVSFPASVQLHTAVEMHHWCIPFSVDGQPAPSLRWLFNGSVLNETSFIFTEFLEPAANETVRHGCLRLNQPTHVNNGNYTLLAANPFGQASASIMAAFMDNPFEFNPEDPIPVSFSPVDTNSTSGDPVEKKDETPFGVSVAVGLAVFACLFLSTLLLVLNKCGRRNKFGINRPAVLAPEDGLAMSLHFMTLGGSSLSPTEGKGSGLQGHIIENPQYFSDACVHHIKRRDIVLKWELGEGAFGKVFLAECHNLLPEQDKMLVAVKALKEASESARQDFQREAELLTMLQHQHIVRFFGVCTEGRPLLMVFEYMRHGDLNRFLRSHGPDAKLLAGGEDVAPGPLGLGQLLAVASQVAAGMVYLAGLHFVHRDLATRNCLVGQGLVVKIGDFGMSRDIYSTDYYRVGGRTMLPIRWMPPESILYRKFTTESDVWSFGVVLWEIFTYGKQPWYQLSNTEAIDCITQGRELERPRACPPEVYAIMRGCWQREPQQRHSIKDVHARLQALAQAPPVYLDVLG

For the molecule `Oc1c(Cl)cc(-c2c[nH]c3ncnc(-c4cnn(C5CCNCC5)c4)c23)cc1Cl` [Example 15, 2,6-dichloro-4-(4-(1-(piperidine-4-yl)-1H-pyrazole-4-yl)-7H-pyrrolo[2,3-d]pyrimidine-5-yl)phenol], the inhibition at 1 µM at TrkA was 95%; on TrkB it was 4%; at TrkC, -16%. Besides, in assay [1], the ED50 is 20.1 mg/kg. Further, the “Maximum duration of drug efficacy” value in assay [1] worked out at 0.5 h.
Turning to `CN1CCN(c2ccc(C(=O)Nc3n[nH]c4ncc(-c5ccccc5)cc34)cc2)CC1` [Example 10, 4-(4-methylpiperazine-1-yl)-N-(5-phenyl-1H-pyrazolo[3,4-b]pyridine-3-yl)benzamide], on TrkA, the midpoint of inhibition, the IC50, lay at 213 nM and the inhibition at 1 µM is 98%. For the same molecule, at TrkB, the inhibition at 1 µM was determined as 27%. On TrkC, the IC50 is 1070 nM and the inhibition at 1 µM is 49%. Besides, in assay [1], the ED50 amounted to 3.8 mg/kg and the “Maximum duration of drug efficacy” value is 0.5 h.
On to `CN1CCN(c2ccc(C(=O)Nc3n[nH]c4ncc(-c5ccncc5)cc34)cc2)CC1` [Example 13, 4-(4-methylpiperazine-1-yl)-N-(5-(pyridine-4-yl)-1H-pyrazolo[3,4-b]pyridine-3-yl)benzamide], for which, on TrkA, inhibition was half-maximal at 179 nM (IC50) and the inhibition at 1 µM worked out at 99%. Moreover, the inhibition at 1 µM on TrkB is -1%. On TrkC, the inhibition at 1 µM turned out to be 0%. Besides, in assay [1], the ED50 was 11.5 mg/kg and the “Maximum duration of drug efficacy” value was found to be 1.0 h.
Turning to `CN1CCN(c2ccc(C(=O)Nc3n[nH]c4ncc(-c5ccc(F)cc5)cc34)cc2)CC1` [Example 11, N-(5-(4-fluorophenyl)-1H-pyrazolo[3,4-b]pyridine-3-yl)-4-(4-methylpiperazine-1-yl)benzamide], half-maximal inhibition on TrkA (IC50) was put at 218 nM. Moreover, the inhibition at 1 µM worked out at 99% on TrkA, 17% on TrkB and 9% at TrkC.
Take `CN1CCN(c2ccc(C(=O)Nc3n[nH]c4ncc(Br)cc34)cc2)CC1` [Example 14, N-(5-bromo-1H-pyrazolo[3,4-b]pyridine-3-yl)-4-(4-methylpiperazine-1-yl)benzamide]: on TrkA, the IC50 is 122 nM and the inhibition at 1 µM worked out at 101%. Besides, the inhibition at 1 µM on TrkB is -8%. For the same molecule, the inhibition at 1 µM on TrkC was -20%. In assay [1], the ED50 was determined as 3.8 mg/kg and the “Maximum duration of drug efficacy” value was determined as 0.5 h.

(Values after US12195467B2, “Compound having TrkA inhibitory activity and pharmaceutical composition, for preventing or alleviating pain, containing same as active ingredient” (JBKLAB CO., LTD., priority 2018, dated 2025).)
